Data from the supplement of paper PMC10307832.

Key:
Experiment in all cases: relative viability (nuclei count vs DMSO), 5 days (fraction); higher = more cells survive
NCI-H1666 = test system: NCI-H1666
Method in brief: (§1)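 Relative viability divides the nuclei count in treated wells by that in vehicle wells. Lung cancer cell lines were seeded in 1536-well plates, dosed by pin tool the next day, and fixed and stained after 5 days in one step with final 0.05% Triton X-100, 1% formaldehyde and 1 ug/ml Hoechst. Dosing was a single drug or a fixed anchor-drug dose plus five library-drug doses (not always all listed) in √10 steps, and values are medians of duplicate plates imaged at 4×.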

NCI-H2347 = test system: NCI-H2347
Method in brief: as §1

NCI-H650 = test system: NCI-H650
Method in brief: as §1

NCI-H661 = test system: NCI-H661
Method in brief: as §1

LCLC-97TM1 = test system: LCLC-97TM1
Method in brief: as §1

HCC-827 = test system: HCC-827
Method in brief: as §1

COR-L 105 = test system: COR-L 105
Method in brief: as §1

201T = test system: 201T
Method in brief: as §1

NCI-H2126 = test system: NCI-H2126
Method in brief: as §1

NCI-H2087 = test system: NCI-H2087
Method in brief: as §1

NCI-H520 = test system: NCI-H520
Method in brief: as §1

ChaGo-K-1 = test system: ChaGo-K-1
Method in brief: as §1

LC-2-ad = test system: LC-2-ad
Method in brief: as §1

H3255 = test system: H3255
Method in brief: as §1

NCI-H2405 = test system: NCI-H2405
Method in brief: as §1

PC-14 = test system: PC-14
Method in brief: as §1

NCI-H647 = test system: NCI-H647
Method in brief: as §1

EPLC-272H = test system: EPLC-272H
Method in brief: as §1

NCI-H23 = test system: NCI-H23
Method in brief: as §1

RERF-LC-KJ = test system: RERF-LC-KJ
Method in brief: as §1

HCC-78 = test system: HCC-78
Method in brief: as §1

NCI-H1915 = test system: NCI-H1915
Method in brief: as §1

Nc1ccn([C@@H]2O[C@H](CO)[C@@H](O)[C@@H]2O)c(=O)n1 [Cytarabine] + Nc1nc2[nH]cc(CCc3ccc(C(=O)N[C@@H](CCC(=O)O)C(=O)O)cc3)c2c(=O)[nH]1 [Pemetrexed] (partner 0.2 µM)
relative viability (NCI-H1666; first compound 0.005 µM): 0.761 | relative viability (NCI-H1666; first compound 0.01581 µM): 0.718 | relative viability (NCI-H1666; first compound 0.05 µM): 0.754 | relative viability (NCI-H1666; first compound 0.1581 µM): 0.655 | relative viability (NCI-H1666; first compound 0.5 µM): 0.616 | relative viability (NCI-H2347; first compound 0.005 µM): 0.392 | relative viability (NCI-H2347; first compound 0.01581 µM): 0.522 | relative viability (NCI-H2347; first compound 0.05 µM): 0.439 | relative viability (NCI-H2347; first compound 0.1581 µM): 0.44 | relative viability (NCI-H2347; first compound 0.5 µM): 0.391 | relative viability (NCI-H650; first compound 0.005 µM): 0.809 | relative viability (NCI-H650; first compound 0.01581 µM): 0.581 | relative viability (NCI-H650; first compound 0.05 µM): 0.283 | relative viability (NCI-H650; first compound 0.1581 µM): 0.171 | relative viability (NCI-H650; first compound 0.5 µM): 0.157 | relative viability (NCI-H661; first compound 0.005 µM): 0.94 | relative viability (NCI-H661; first compound 0.01581 µM): 0.849 | relative viability (NCI-H661; first compound 0.05 µM): 0.851 | relative viability (NCI-H661; first compound 0.1581 µM): 0.609 | relative viability (NCI-H661; first compound 0.5 µM): 0.373 | relative viability (LCLC-97TM1; first compound 0.005 µM): 0.209 | relative viability (LCLC-97TM1; first compound 0.01581 µM): 0.179 | relative viability (LCLC-97TM1; first compound 0.05 µM): 0.0983 | relative viability (LCLC-97TM1; first compound 0.1581 µM): 0.108 | relative viability (LCLC-97TM1; first compound 0.5 µM): 0.0633 | relative viability (HCC-827; first compound 0.005 µM): 0.222 | relative viability (HCC-827; first compound 0.01581 µM): 0.281 | relative viability (HCC-827; first compound 0.05 µM): 0.161 | relative viability (HCC-827; first compound 0.1581 µM): 0.152 | relative viability (HCC-827; first compound 0.5 µM): 0.113 | relative viability (COR-L 105; first compound 0.005 µM): 0.961 | relative viability (COR-L 105; first compound 0.01581 µM): 1.19 | relative viability (COR-L 105; first compound 0.05 µM): 0.678 | relative viability (COR-L 105; first compound 0.1581 µM): 0.579 | relative viability (COR-L 105; first compound 0.5 µM): 0.383 | relative viability (201T; first compound 0.005 µM): 0.361 | relative viability (201T; first compound 0.01581 µM): 0.353 | relative viability (201T; first compound 0.05 µM): 0.309 | relative viability (201T; first compound 0.1581 µM): 0.325 | relative viability (201T; first compound 0.5 µM): 0.25 | relative viability (NCI-H2126; first compound 0.005 µM): 0.76 | relative viability (NCI-H2126; first compound 0.01581 µM): 0.775 | relative viability (NCI-H2126; first compound 0.05 µM): 0.525 | relative viability (NCI-H2126; first compound 0.1581 µM): 0.549 | relative viability (NCI-H2126; first compound 0.5 µM): 0.46 | relative viability (NCI-H2087; first compound 0.005 µM): 0.631 | relative viability (NCI-H2087; first compound 0.01581 µM): 0.616 | relative viability (NCI-H2087; first compound 0.05 µM): 0.647 | relative viability (NCI-H2087; first compound 0.1581 µM): 0.57 | relative viability (NCI-H2087; first compound 0.5 µM): 0.283 | relative viability (NCI-H520; first compound 0.005 µM): 0.605 | relative viability (NCI-H520; first compound 0.01581 µM): 0.65 | relative viability (NCI-H520; first compound 0.05 µM): 0.639 | relative viability (NCI-H520; first compound 0.1581 µM): 0.528 | relative viability (NCI-H520; first compound 0.5 µM): 0.398 | relative viability (ChaGo-K-1; first compound 0.005 µM): 0.264 | relative viability (ChaGo-K-1; first compound 0.01581 µM): 0.249 | relative viability (ChaGo-K-1; first compound 0.05 µM): 0.239 | relative viability (ChaGo-K-1; first compound 0.1581 µM): 0.209 | relative viability (ChaGo-K-1; first compound 0.5 µM): 0.192 | relative viability (LC-2-ad; first compound 0.005 µM): 0.28 | relative viability (LC-2-ad; first compound 0.01581 µM): 0.31 | relative viability (LC-2-ad; first compound 0.05 µM): 0.286 | relative viability (LC-2-ad; first compound 0.1581 µM): 0.268 | relative viability (LC-2-ad; first compound 0.5 µM): 0.265 | relative viability (H3255; first compound 0.005 µM): 0.625 | relative viability (H3255; first compound 0.01581 µM): 0.565 | relative viability (H3255; first compound 0.05 µM): 0.506 | relative viability (H3255; first compound 0.1581 µM): 0.526 | relative viability (H3255; first compound 0.5 µM): 0.432 | relative viability (NCI-H2405; first compound 0.005 µM): 1 | relative viability (NCI-H2405; first compound 0.01581 µM): 0.654 | relative viability (NCI-H2405; first compound 0.05 µM): 0.61 | relative viability (NCI-H2405; first compound 0.1581 µM): 0.495 | relative viability (NCI-H2405; first compound 0.5 µM): 0.41 | relative viability (PC-14; first compound 0.005 µM): 0.183 | relative viability (PC-14; first compound 0.01581 µM): 0.156 | relative viability (PC-14; first compound 0.05 µM): 0.187 | relative viability (PC-14; first compound 0.1581 µM): 0.0581 | relative viability (PC-14; first compound 0.5 µM): 0.0565 | relative viability (NCI-H647; first compound 0.005 µM): 0.185 | relative viability (NCI-H647; first compound 0.01581 µM): 0.174 | relative viability (NCI-H647; first compound 0.05 µM): 0.0984 | relative viability (NCI-H647; first compound 0.1581 µM): 0.0797 | relative viability (NCI-H647; first compound 0.5 µM): 0.0683 | relative viability (EPLC-272H; first compound 0.005 µM): 0.232 | relative viability (EPLC-272H; first compound 0.01581 µM): 0.338 | relative viability (EPLC-272H; first compound 0.05 µM): 0.289 | relative viability (EPLC-272H; first compound 0.1581 µM): 0.27 | relative viability (EPLC-272H; first compound 0.5 µM): 0.222 | relative viability (NCI-H23; first compound 0.005 µM): 0.611 | relative viability (NCI-H23; first compound 0.01581 µM): 0.527 | relative viability (NCI-H23; first compound 0.05 µM): 0.445 | relative viability (NCI-H23; first compound 0.1581 µM): 0.172 | relative viability (NCI-H23; first compound 0.5 µM): 0.159 | relative viability (RERF-LC-KJ; first compound 0.005 µM): 0.453 | relative viability (RERF-LC-KJ; first compound 0.01581 µM): 0.502 | relative viability (RERF-LC-KJ; first compound 0.05 µM): 0.381 | relative viability (RERF-LC-KJ; first compound 0.1581 µM): 0.34 | relative viability (RERF-LC-KJ; first compound 0.5 µM): 0.249 | relative viability (HCC-78; first compound 0.005 µM): 0.824 | relative viability (HCC-78; first compound 0.01581 µM): 0.918 | relative viability (HCC-78; first compound 0.05 µM): 0.889 | relative viability (HCC-78; first compound 0.1581 µM): 0.936 | relative viability (HCC-78; first compound 0.5 µM): 0.894 | relative viability (NCI-H1915; first compound 0.005 µM): 0.506 | relative viability (NCI-H1915; first compound 0.01581 µM): 0.563 | relative viability (NCI-H1915; first compound 0.05 µM): 0.54 | relative viability (NCI-H1915; first compound 0.1581 µM): 0.45 | relative viability (NCI-H1915; first compound 0.5 µM): 0.333
